Data taken from US6165998A, “Antifungal agents” (Scriptgen Pharmaceuticals, Inc., priority 1998, dated 2000).
Values after ≈ are worked out from the molar mass of the structure shown. “Also recorded” adds a separate entry of the source. Read-outs that look alike come from different tables or passages of the source.

Columns and labels:
[1] = system: amphotericin-resistant strain; experiment: Synergy with amphotericin B in amphotericin-resistant strain; assay type: cell-based
Description: (§1) This synergy was not seen in an amphotericin-resistant strain. Subsequent experiments in a 2-way titration format confirmed the synergistic activity of the combination (FIG. 18). The synergy noted between these two agents was unique among the tested antifungal compounds, and was not noted for other promising compounds identified in the high throughput screen.

C. albicans [2] = experiment: MIC alone and with sub-MIC amphotericin B, C. albicans; assay type: cell-based, Candida albicans
Description: as §1

wild type C. tropicalis = experiment: MIC alone and with sub-MIC amphotericin B, C. tropicalis; assay type: cell-based, Candida tropicalis
Description: as §1

fungal pathogens = experiment: In vitro antifungal activity (MIC); assay type: cell-based
[3] = target: T1, C. albicans RNA polymerase II (Candida albicans, UniProt A0A1D8PUA6+Q5A8Y5); experiment: biochemical
T1 construct: RNA elongation assay on calf thymus DNA
T1 sequence (A0A1D8PUA6 1-1728): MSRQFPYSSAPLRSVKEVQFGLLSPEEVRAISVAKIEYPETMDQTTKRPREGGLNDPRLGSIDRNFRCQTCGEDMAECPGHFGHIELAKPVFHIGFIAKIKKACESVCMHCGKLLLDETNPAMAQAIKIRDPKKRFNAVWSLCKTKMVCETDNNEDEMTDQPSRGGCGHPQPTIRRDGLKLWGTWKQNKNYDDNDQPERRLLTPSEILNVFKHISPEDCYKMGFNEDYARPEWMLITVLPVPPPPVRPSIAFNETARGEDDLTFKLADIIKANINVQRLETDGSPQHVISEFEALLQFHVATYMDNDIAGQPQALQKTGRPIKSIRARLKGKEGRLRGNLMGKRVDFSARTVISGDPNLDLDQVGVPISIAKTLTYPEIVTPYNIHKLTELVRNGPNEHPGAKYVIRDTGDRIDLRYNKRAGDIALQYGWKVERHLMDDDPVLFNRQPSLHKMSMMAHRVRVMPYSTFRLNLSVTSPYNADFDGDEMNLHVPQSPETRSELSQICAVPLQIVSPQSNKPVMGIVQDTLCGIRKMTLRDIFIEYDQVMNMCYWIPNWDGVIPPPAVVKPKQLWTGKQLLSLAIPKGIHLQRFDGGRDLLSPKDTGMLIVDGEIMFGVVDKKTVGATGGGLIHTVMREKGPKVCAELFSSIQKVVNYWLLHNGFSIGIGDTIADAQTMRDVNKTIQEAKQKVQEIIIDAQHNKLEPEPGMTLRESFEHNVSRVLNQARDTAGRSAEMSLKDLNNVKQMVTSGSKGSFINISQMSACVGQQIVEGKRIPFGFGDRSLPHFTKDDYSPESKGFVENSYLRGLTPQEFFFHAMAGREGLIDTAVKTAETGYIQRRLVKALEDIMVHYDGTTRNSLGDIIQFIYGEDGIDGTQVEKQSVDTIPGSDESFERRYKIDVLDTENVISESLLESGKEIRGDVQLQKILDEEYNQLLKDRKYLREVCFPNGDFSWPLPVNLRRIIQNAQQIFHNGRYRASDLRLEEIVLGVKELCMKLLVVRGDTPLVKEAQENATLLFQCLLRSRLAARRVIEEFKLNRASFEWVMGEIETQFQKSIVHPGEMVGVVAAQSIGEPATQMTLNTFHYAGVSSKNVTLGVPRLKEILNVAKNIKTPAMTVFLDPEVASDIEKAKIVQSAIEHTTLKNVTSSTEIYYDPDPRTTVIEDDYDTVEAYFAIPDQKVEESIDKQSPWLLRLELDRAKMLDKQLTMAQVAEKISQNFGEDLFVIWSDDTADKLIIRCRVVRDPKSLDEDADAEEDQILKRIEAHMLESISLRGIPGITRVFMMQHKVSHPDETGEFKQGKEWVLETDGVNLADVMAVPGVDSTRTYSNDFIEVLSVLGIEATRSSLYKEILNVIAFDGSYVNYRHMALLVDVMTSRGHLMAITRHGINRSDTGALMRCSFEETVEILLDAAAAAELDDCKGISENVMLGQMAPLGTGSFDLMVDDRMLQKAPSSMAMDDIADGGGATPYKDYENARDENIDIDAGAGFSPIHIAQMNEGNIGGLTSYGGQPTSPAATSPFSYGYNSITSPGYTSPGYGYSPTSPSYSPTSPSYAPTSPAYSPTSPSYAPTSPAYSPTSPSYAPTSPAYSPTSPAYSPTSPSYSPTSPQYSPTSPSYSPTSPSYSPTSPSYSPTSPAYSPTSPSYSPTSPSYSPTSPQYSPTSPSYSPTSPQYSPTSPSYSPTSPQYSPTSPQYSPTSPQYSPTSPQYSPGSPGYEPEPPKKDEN
T1 sequence (Q5A8Y5 1-1234): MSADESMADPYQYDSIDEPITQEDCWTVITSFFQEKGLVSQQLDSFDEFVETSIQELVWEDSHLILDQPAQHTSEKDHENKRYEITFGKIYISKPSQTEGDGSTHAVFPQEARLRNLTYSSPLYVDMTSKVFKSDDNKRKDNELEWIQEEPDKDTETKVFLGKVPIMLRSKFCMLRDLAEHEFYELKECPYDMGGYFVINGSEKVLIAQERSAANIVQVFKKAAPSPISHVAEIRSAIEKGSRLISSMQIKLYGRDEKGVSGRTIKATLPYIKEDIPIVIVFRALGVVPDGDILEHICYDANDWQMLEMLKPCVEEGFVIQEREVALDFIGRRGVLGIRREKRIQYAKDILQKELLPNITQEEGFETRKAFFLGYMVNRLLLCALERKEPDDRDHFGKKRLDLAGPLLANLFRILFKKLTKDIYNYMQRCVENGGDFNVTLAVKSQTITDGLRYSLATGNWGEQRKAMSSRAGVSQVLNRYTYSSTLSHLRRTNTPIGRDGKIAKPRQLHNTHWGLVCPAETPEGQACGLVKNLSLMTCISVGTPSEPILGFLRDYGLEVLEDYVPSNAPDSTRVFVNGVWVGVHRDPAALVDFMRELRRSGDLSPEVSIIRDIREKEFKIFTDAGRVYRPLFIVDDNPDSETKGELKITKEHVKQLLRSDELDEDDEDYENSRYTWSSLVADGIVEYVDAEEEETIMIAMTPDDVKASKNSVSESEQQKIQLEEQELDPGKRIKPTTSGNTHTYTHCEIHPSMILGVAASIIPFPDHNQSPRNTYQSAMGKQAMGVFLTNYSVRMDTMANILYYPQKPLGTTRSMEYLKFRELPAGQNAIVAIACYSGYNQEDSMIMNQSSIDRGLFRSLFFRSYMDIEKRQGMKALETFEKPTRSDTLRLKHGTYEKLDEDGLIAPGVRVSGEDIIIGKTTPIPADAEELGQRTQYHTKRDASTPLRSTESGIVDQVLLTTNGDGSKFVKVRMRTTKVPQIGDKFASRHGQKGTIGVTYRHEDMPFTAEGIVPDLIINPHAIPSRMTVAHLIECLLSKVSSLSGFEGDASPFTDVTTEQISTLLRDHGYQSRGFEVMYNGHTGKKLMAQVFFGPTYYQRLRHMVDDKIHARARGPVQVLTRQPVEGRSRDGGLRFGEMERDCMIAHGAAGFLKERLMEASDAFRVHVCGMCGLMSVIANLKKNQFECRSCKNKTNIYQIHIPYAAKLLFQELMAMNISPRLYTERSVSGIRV
Method: The following procedure is used for cell-free high-throughput screening. A Tomtec Quadra 96-well pipetting station is used to add the reaction components to polypropylene 96-well dishes. 5 μl aliquots of test compounds dissolved in DMSO (or DMSO alone as a control) are added to wells. This is followed by 20 μl of the RNA polymerase II mixture, which consists of: 10 mM DTT, 200 mM KCl, 10 mM Mn^+2, 1.5 μM bovine serum albumin, and 0.25 μg reconstituted RNA polymerase. After allowing the test compound to interact with the RNA polymerase, 25 μl of the DNA/NTP mixture is added, containing: 1 μg calf thymus DNA, 4 μM [α-^32 P]-UTP, and 400 μM each CTP, ATP, and GTP.
After incubation for 60 min at 30 C, the reaction is stopped by addition of 50 μl 15% trichloroacetic acid (TCA). The TCA-precipitated RNA is adsorbed onto double-thick glass fiber filtermats using a Tomtec cell harvester. The wells of the microtiter plate and the filter are washed twice with 5% TCA and bound radioactivity is determined using a Wallac microbeta 1450 scintillation counter.
Inhibitory activity due to the test compound is calculated according to the formula: [formula] where cpmpositive control represents the average of the cpm in wells that received DMSO alone, and cpmsample represents the cpm in the well that received test compound. Compounds that cause at least 50% inhibition are scored as positive "hits" in this assay.
DNA-directed RNA polymerase II from Candida albicans was purified in sufficient quantity to support high throughput screening of large synthetic chemical and natural product libraries. A biochemical mechanism-based screen for detecting inhibitors of Pol II was developed and implemented. The screen is outlined in FIGS. 4A and 4B.

[4] = system: Candida strains resistance to ketoconazole or to amphotericin B; experiment: Antifungal activity against resistant Candida strains; assay type: cell-based
[5] = Safety assessment on target panel
Method: (§2) A safety assessment of Compound 1 was conducted. The compound was negative for effects in a number of CNS, cardiovascular, intermediary metabolism, allergy/inflammation and gastrointestinal targets. The compound was nontoxic when administered orally at 300 mg/kg.

[6] = Compound-related toxicity in treated mice; assay type: in vivo, mouse; details: IP or PO for 10 days at 100 mg/kg/d
Method: (§3) In addition, Compound 1 was efficacious in a murine model for systemic candidiasis (FIG. 10). It prolonged mean and median survival times of treated mice in the dosage range of 5 mg/kg/d to 100 mg/kg/d on aq.d., d2-11 schedule. […] The efficacy of Compound 1 was confirmed in a separate experiment using amphotericin as a control (FIG. 11). Compound 1 was also efficacious when administered orally to mice with an established systemic Candida infection (FIG. 12). […] Compound 1 is also effective against systemic candidiasis caused by a strain of C. albicans resistant to fluconazole (FIG. 13). Additional animal testing will include acute toxicity determination, route and schedule dependency in standard efficacy models, efficacy testing in immunosuppressed Candida infected mice, efficacy in an Aspergillus infection model, and pharmacokinetics following IV and oral dosing.
(§4) Compound 6 was evaluated for antifungal efficacy in a systemic candidiasis model in immunocompetent mice (FIG. 18). The compound was administered IP on a q.d., d2-11 schedule. […] 90% long term survival was seen formice treated with Compound 6 at 200/mg/kg. 30% of mice survived when treated with Compound 6 at 100 mg/kg/d. Compound 6 was also effective against systemic candidiasis when administered orally (FIG. 19) and it was effective in treating infections caused by fluconazole-resistant C. albicans.

[7] = system: Trichophyton mentagrophytes; experiment: Activity against human dermatophytic fungi; assay type: cell-based
C. albicans [8] = experiment: Time course of fungicidal activity, C. albicans; assay type: cell-based, Candida albicans
Description: (§5) Compound 1 is rapidly fungicidal.

C. albicans [9] = experiment: Frequency of resistance study, C. albicans; assay type: cell-based, Candida albicans; details: selective concentrations 1× to 10× the MIC
Method: A frequency of resistance study is conducted for Compound 1 using C. albicans and S. cerevisiae, with amphotericin B as the comparator. Selective concentrations of each compound between 1× and 10× the MIC are used for each compound.

human Pol II = target: T2, human Pol II (Homo sapiens, UniProt P24928+P30876); experiment: RNA polymerase II counterscreen, human pol II; assay type: biochemical
T2 construct: Pol II was isolated from Aspergillus nidulans, Saccharomyces cerevisiae, and human cells; endogenous in cells; enzyme isolated from them
Method: Pol II was isolated from Aspergillus nidulans, Saccharomyces cerevisiae, and human cells (FIG. 5) and used in secondary screens for fungal spectrum and specificity. Pol I and Pol III were isolated from Candida albicans and used as an additional mechanism to study specificity. Confirmed hits form the primary assay and were evaluated against this panel of polymerases. Agents with activity against Pol II from multiple fungal enzymes but not against the human counterpart were evaluated in vitro against fungal pathogens.

[10] = Safety assessment, oral toxicity; assay type: in vivo; details: orally at 300 mg/kg
Method: as §2

Fusarium culmorum = experiment: MIC against plant pathogen; assay type: cell-based
S. cerevisiae = experiment: Time course of fungicidal activity, S. cerevisiae; assay type: cell-based, Saccharomyces cerevisiae
Description: as §5

monkey kidney cells = experiment: Toxicity against monkey kidney cells; assay type: cell-based
[11] = system: systemic Candida infection; experiment: Murine model for systemic candidiasis; assay type: in vivo, mouse
Method: as §3, §4

[12] = system: C. albicans resistant to fluconazole; experiment: Systemic candidiasis caused by fluconazole-resistant C. albicans; details: mouse, in vivo
Method: as §3, §4

CCCCN(CCO)c1ccc(N=Nc2c(Br)cc([N+](=O)[O-])cc2[N+](=O)[O-])c(C)c1 [Compound 2]
synergy with amphotericin B [1]: not seen | potency against Candida albicans in vitro (C. albicans [2]): relatively low potency | synergy with amphotericin B (C. albicans [2]): act synergistically | MIC (C. albicans [2]; alone, ketoconazole resistant C. albicans): 80 µg/mL | MIC (C. albicans [2]; alone, wild type C. albicans): 80 µg/mL | MIC (C. albicans [2]; with sub-MIC amphotericin B (1/3 of the MIC), ketoconazole resistant C. albicans): 1 to 2 µg/mL | MIC (C. albicans [2]; with sub-MIC amphotericin B (1/3 of the MIC), wild type C. albicans): 1 to 2 µg/mL | MIC (wild type C. tropicalis; alone): 80 µg/mL | MIC (wild type C. tropicalis; with sub-MIC amphotericin B (1/3 of the MIC)): 1 to 2 µg/mL | fungicidal or fungistatic character (fungal pathogens): does not appear to be fungicidal; also recorded: fungistatic rather than fungicidal | MIC (fungal pathogens; in combination with amphotericin B, strain not named): 1 to 2 µg/mL | fungal Pol II inhibition [3]: potent inhibitor

Oc1ccc(N=Nc2cccc(C(F)(F)F)c2)cc1 [Compound 1, 4-[-2-[3-(trifluoromethyl)phenyl]diazenyl]-phenol]
antifungal activity against resistant Candida strains [4]: retains antifungal activity | effects in safety assessment targets [5]: negative | compound related toxicity [6]: No signs of compound related toxicity | activity against Trichophyton mentagrophytes [7]: active | exposure time after which no CFUs are recoverable (C. albicans [8]; C. albicans cells): 5 min | colony forming units after exposure (C. albicans [8]; about 10^6 C. albicans cells, 25 μg/ml, 45 minutes): no detectable colony forming units | frequency of resistance (C. albicans [9]): < 1×10^-8 | IC50 (human Pol II): 43 µM | toxicity when administered orally [10]: nontoxic | MIC (Fusarium culmorum): 6.25 µg/mL (≈ 23.5 µM) | exposure time after which no CFUs are recoverable (S. cerevisiae; S. cerevisiae cells): 5 min | colony forming units after exposure (S. cerevisiae; about 10^6 S. cerevisiae cells, 25 μg/ml, 45 minutes): no detectable colony forming units | in vitro antifungal activity / spectrum (fungal pathogens): broad spectrum in vitro activity | MIC (fungal pathogens; Table 1, antifungal activity, read-out: MIC): 16.6 µg/mL (≈ 62.4 µM) | fungal Pol II inhibition [3]: potent activity | IC50 ([3]; Table 1, read-out: IC50 Candida pol II): 10 µM | inhibition at 20 µM ([3]; at 20 μM, screening of azo library): 59% | toxicity against monkey kidney cells (monkey kidney cells): essentially non-toxic | mean and median survival times of treated mice ([11]; 5 mg/kg/d to 100 mg/kg/d, q.d., d2-11): prolonged | efficacy when administered orally ([11]; mice with an established systemic Candida infection, oral): efficacious | recoverable colonies from the kidneys of treated animals ([11]; systemic candidiasis, mice): reduced | efficacy against systemic candidiasis caused by fluconazole-resistant C. albicans [12]: effective
